Assay results taken from patent publication US20250206758A1, “SUBSTITUTED BRIDGED RING INHIBITOR, PREPARATION METHOD THEREFOR AND APPLICATION THEREOF” (SUZHOU ZELGEN BIOPHARMACEUTICALS CO., LTD., priority 2022, published 2025).
Where a name gives a salt, the structure may show the parent alone. Read-outs that look alike come from different tables or passages of the source.

Columns and labels:
GP2D = assay: Cell proliferation inhibition, GP2D (CellTiter-Glo 3D, 7 days); assay type: cell-based
Method: (§1) • (a) Resuscitating cells in T75 cell culture flask: • (b) When the cell confluence reaches 80-90%, subculturing the cells.
(§2) The diluted test compound was added to a 384-well cell culture plate with a nanoliter pipetting system, and duplicate wells were set up. An equal volume of culture medium was added to the positive control group; and an equal volume of DMSO was added to the negative control group, then centrifugation was conducted at 1000 rpm for 1 min at room temperature.
(§3) Cells were inoculated into a) 384-well culture plate, with an equal volume of cells added to the negative control group, and only an equal volume of culture medium added to the positive control group. The plate was centrifuged at 1000 rpm for 1 min at room temperature, and the final DMSO concentration of the compound was 0.5% at last. The plate was placed in a 37° C., 5% CO2 constant temperature incubator for 7 days.
(§4) 20 μL/well of CellTiter-Glo® 3D to b) was added to 384-well cell culture plate, and the plate was shook at 320 rpm for 20 min in the dark, and incubated at room temperature in the dark for 2 hrs.
(§5) The luminescence value was read using an Envision multi-functional microplate reader.
(§6) The inhibition rate (IR) of the test compound was calculated using the following formula: IR (%)=(1−(RLU compound−RLU blank control)/(RLU meidum control−RLU blank control))*100%. The inhibition rates of different concentrations of compounds were calculated in Excel, and then the inhibition curves were plotted and the related parameters (including the minimum inhibition rate, maximum inhibition rate and IC50) were calculated using GraphPad Prism software.

AsPC-1 = assay: Cell proliferation inhibition, AsPC-1 (CellTiter-Glo 3D, 7 days); assay type: cell-based; conditions: AsPC-1, 7 days
Method: as §1, §2, §3, §4, §5, §6

SMILES | IC50 (GP2D; 168 h) [nM] | IC50 (AsPC-1; Homo sapiens, ASPC1, 168 h) [nM] | IC50 (GP2D) [nM] | IC50 (AsPC-1) [nM]
C#Cc1c(F)ccc2cc(O)cc(-c3ncc4c(N5C[C@H]6CC[C@@H](C5)N6)nc(OC[C@]56CCC7(CC7)N5C[C@@H](F)C6)nc4c3F)c12 (relative stereo) [Example 12A, 4-(4-((1R,5S)-3,8-diazabicyclo[3.2.1]octan-3-yl)-8-fluoro-2-(((trans)-6′-fluorotetrahydrospiro[cyclopropan-1,3′-pyrrolizin]-7a′(5′H)-yl)methoxy)pyridino[4,3-d]pyrimidin-7-yl)-5-ethynyl-6-fluoronaphthalen-2-ol] | 3.07 | 24.8 |  | 
C#Cc1c(F)ccc2cc(O)cc(-c3ncc4c(N5C[C@H]6CC[C@@H](C5)N6)nc(OC[C@@]56CCC7(CC7)N5C[C@@H](F)C6)nc4c3F)c12 (relative stereo) [Example 12B, 4-(4-((1R,5S)-3,8-diazabicyclo[3.2.1]octan-3-yl)-8-fluoro-2-(((cis)-6′-fluorotetrahydrospiro[cyclopropan-1,3′-pyrrolizin]-7a′(5′H)-yl)methoxy)pyridino[4,3-d]pyrimidin-7-yl)-5-ethynyl-6-fluoronaphthalen-2-ol] | 29.6 | 390 |  | 
C#Cc1c(F)ccc2cc(O)cc(-c3ncc4c(N5C[C@H]6CC[C@@H](C5)N6)nc(OC[C@]56C[C@@H](F)CN5CC5(CC5)C6)nc4c3F)c12 [Example 10A, 4-(4-((1R,5S)-3,8-diazabicyclo[3.2.1]octan-3-yl)-8-fluoro-2-(((6′R,7a'S)-6′-fluorodihydro-1′H,3′H-spiro[cyclopropan-1,2′-pyrrolizin]-7a′(5′H)-yl)methoxy)pyridino[4,3-d]pyrimidin-7-yl)-5-ethynyl-6-fluoronaphthalen-2-ol] | 1.07 | 23.5 |  | 
C#Cc1c(F)ccc2cc(O)cc(-c3ncc4c(N5C[C@H]6CC[C@@H](C5)N6)nc(OC[C@@]56C[C@@H](F)CN5CC5(CC5)C6)nc4c3F)c12 [Example 10B, 4-(4-((1R,5S)-3,8-diazabicyclo[3.2.1]octan-3-yl)-8-fluoro-2-(((6′R,7a′R)-6′-fluorodihydro-1′H,3′H-spiro[cyclopropan-1,2′-pyrrolizin]-7a′(5′H)-yl)methoxy)pyridino[4,3-d]pyrimidin-7-yl)-5-ethynyl-6-fluoronaphthalen-2-ol] | 0.51 | 17.3 |  | 
C#Cc1c(F)ccc2cc(O)cc(-c3ncc4c(N5CC6CCC(C5)N6)nc(OCC56CCCN5C5(CC5)CC6)nc4c3F)c12 [Example 11, 4-(4-((1R,5S)-3,8-diazabicyclo[3.2.1]octan-3-yl)-8-fluoro-2-((tetrahydrospiro[cyclopropan-1,3′-pyrrolizin]-7a′(5′H)-yl)methoxy)pyridino[4,3d]pyrimidin-7-yl)-5-ethynyl-6-fluoronaphthalen-2-ol] | 3.01 | 38.2 |  | 
C#Cc1c(F)ccc2cc(O)cc(-c3ncc4c(N5CC6CCC(C5)N6)nc(OCC56CC(F)(F)CCN5CC5(CC5)C6)nc4c3F)c12 [Example 13, 4-(4-((1R,5S)-3,8-diazabicyclo[3.2.1]octan-3-yl)-2-((7′,7′-difluorotetrahydro-3′-H-spiro[cyclopropan-1,2′-pyrrolizin]-8a′(1′H)-yl)methoxy)-8-fluoropyridino[4,3d]pyrimidin-7-yl)-5-ethynyl-6-fluoronaphthalen-2-ol trifluoroacetate] | 42.8 | 210 |  | 
C#Cc1c(F)ccc2cc(O)cc(-c3ncc4c(N5C[C@H]6CC[C@@H](C5)N6)nc(OCC56CC(F)(F)CN5CC5(CC5)C6)nc4c3F)c12 (stereo partly drawn) [Example 14, 4-(4-((1R,5S)-3,8-diazabicyclo[3.2.1]octan-3-yl)-2-((6′,6′-difluorotetrahydro-3′-H-spiro[cyclopropan-1,2′-pyrrolizin]-8a′(1′H)-yl)methoxy)-8-fluoropyridino[4,3d]pyrimidin-7-yl)-5-ethynyl-6-fluoronaphthalen-2-ol] |  |  | > 100 | 921
C#Cc1c(F)ccc2cc(O)cc(-c3ncc4c(N5C[C@H]6CC[C@@H](C5)N6)nc(OC[C@]56C[C@@H](F)CN5C[C@@]5(CC5(F)F)C6)nc4c3F)c12 [Example 15A, 4-(4-((1R,5S)-3,8-diazabicyclo[3.2.1]octan-3-yl)-8-fluoro-2-(((1S,6′R,7a'S)-2,2,6′-trifluorodihydro-1′H,3′H-spiro[cyclopropan-1,2′-pyrrolizin]-7a′(5′H)-yl)methoxy)pyridino[4,3-d]pyrimidin-7-yl)-5-ethynyl-6-fluoronaphthalen-2-ol] | 13.1 | 108 |  | 
C#Cc1c(F)ccc2cc(O)cc(-c3ncc4c(N5C[C@H]6CC[C@@H](C5)N6)nc(OC[C@]56C[C@@H](F)CN5C[C@]5(CC5(F)F)C6)nc4c3F)c12 [Example 15B, 4-(4-((1R,5S)-3,8-diazabicyclo[3.2.1]octan-3-yl)-8-fluoro-2-(((1R,6′R,7a'S)-2,2,6′-trifluorodihydro-1′H,3′H-spiro[cyclopropan-1,2′-pyrrolizin]-7a′(5′H)-yl)methoxy)pyridino[4,3-d]pyrimidin-7-yl)-5-ethynyl-6-fluoronaphthalen-2-ol] | 7.35 | 50.8 |  | 
C#Cc1c(F)ccc2cc(O)cc(-c3ncc4c(N5C[C@H]6CC[C@@H](C5)N6)nc(OC[C@@]56C[C@@H](F)CN5C[C@@]5(CC5(F)F)C6)nc4c3F)c12 [Example 15C, 4-(4-((1R,5S)-3,8-diazabicyclo[3.2.1]octan-3-yl)-8-fluoro-2-(((1S,6′R,7a′R)-2,2,6′-trifluorodihydro-1′H,3′H-spiro[cyclopropan-1,2′-pyrrolizin]-7a′(5′H)-yl)methoxy)pyridino[4,3-d]pyrimidin-7-yl)-5-ethynyl-6-fluoronaphthalen-2-ol] | 12.1 | 60.6 |  | 
C#Cc1c(F)ccc2cc(O)cc(-c3ncc4c(N5C[C@H]6CC[C@@H](C5)N6)nc(OC[C@@]56C[C@@H](F)CN5C[C@]5(CC5(F)F)C6)nc4c3F)c12 [Example 15D, 4-(4-((1R,5S)-3,8-diazabicyclo[3.2.1]octan-3-yl)-8-fluoro-2-(((1R,6′R,7a′R)-2,2,6′-trifluorodihydro-1′H,3′H-spiro[cyclopropan-1,2′-pyrrolizin]-7a′(5′H)-yl)methoxy)pyridino[4,3-d]pyrimidin-7-yl)-5-ethynyl-6-fluoronaphthalen-2-ol] | 44.5 | 177 |  | 
C#Cc1c(F)ccc2cc(O)cc(-c3ncc4c(N5C[C@H]6CC[C@@H](C5)N6)nc(OC[C@]56C[C@H](F)CN5C[C@@]5(CC5(F)F)C6)nc4c3F)c12 [Example 15E, 4-(4-((1R,5S)-3,8-diazabicyclo[3.2.1]octan-3-yl)-8-fluoro-2-(((1S,6'S,7a'S)-2,2,6′-trifluorodihydro-1′H,3′H-spiro[cyclopropan-1,2′-pyrrolizin]-7a′(5′H)-yl)methoxy)pyridino[4,3-d]pyrimidin-7-yl)-5-ethynyl-6-fluoronaphthalen-2-ol] | 32.2 | 314 |  | 
C#Cc1c(F)ccc2cc(O)cc(-c3ncc4c(N5C[C@H]6CC[C@@H](C5)N6)nc(OC[C@]56C[C@H](F)CN5C[C@]5(CC5(F)F)C6)nc4c3F)c12 [Example 15F, 4-(4-((1R,5S)-3,8-diazabicyclo[3.2.1]octan-3-yl)-8-fluoro-2-(((1R,6'S,7a'S)-2,2,6′-trifluorodihydro-1′H,3′H-spiro[cyclopropan-1,2′-pyrrolizin]-7a′(5′H)-yl)methoxy)pyridino[4,3-d]pyrimidin-7-yl)-5-ethynyl-6-fluoronaphthalen-2-ol] | > 100 | > 1000 |  | 
C#Cc1c(F)ccc2cc(O)cc(-c3ncc4c(N5C[C@H]6CC[C@@H](C5)N6)nc(OC[C@@]56C[C@H](F)CN5C[C@@]5(CC5(F)F)C6)nc4c3F)c12 [Example 15G, 4-(4-((1R,5S)-3,8-diazabicyclo[3.2.1]octan-3-yl)-8-fluoro-2-(((1S,6'S,7a′R)-2,2,6′-trifluorodihydro-1′H,3′H-spiro[cyclopropan-1,2′-pyrrolizin]-7a′(5′H)-yl)methoxy)pyridino[4,3-d]pyrimidin-7-yl)-5-ethynyl-6-fluoronaphthalen-2-ol] | 39.1 | 329 |  | 
C#Cc1c(F)ccc2cc(O)cc(-c3ncc4c(N5C[C@H]6CC[C@@H](C5)N6)nc(OC[C@@]56C[C@H](F)CN5C[C@]5(CC5(F)F)C6)nc4c3F)c12 [Example 15H, 4-(4-((1R,5S)-3,8-diazabicyclo[3.2.1]octan-3-yl)-8-fluoro-2-(((1R,6'S,7a′R)-2,2,6′-trifluorodihydro-1′H,3′H-spiro[cyclopropan-1,2′-pyrrolizin]-7a′(5′H)-yl)methoxy)pyridino[4,3-d]pyrimidin-7-yl)-5-ethynyl-6-fluoronaphthalen-2-ol] | 9.3 | 226 |  | 
C#Cc1c(F)ccc2cc(O)cc(-c3ncc4c(N5C[C@H]6CC[C@@H](C5)N6)nc(OC[C@]56CCCN5C[C@]5(CC5(F)F)C6)nc4c3F)c12 [Example 16B-2, 4-(4-((1R,5S)-3,8-diazabicyclo[3.2.1]octan-3-yl)-2-(((1R,7a′R)-2,2-difluorodihydro-1′H,3′H-spiro[cyclopropan-1,2′-pyrrolizin]-7a′(5′H)-yl)methoxy)-8-fluoropyridino[4,3-d]pyrimidin-7-yl)-5-ethynyl-6-fluoronaphthalen-2-ol] | 1.55 | 9.22 |  | 
CCc1c(F)ccc2cc(O)cc(-c3ncc4c(N5CC6CCC(C5)N6)nc(OC[C@@]56CCCN5C[C@@]5(CC5(F)F)C6)nc4c3F)c12 [Example 17A] | 0.26 | 1.07 |  | 
